Results taken from a flash point compilation (Sun et al. 2020).

Compound | flash point [°C]
CCCCCCC(C)O (centres undefined) [2-Octanol] | 88.00
CCCC(C)O (centres undefined) [2-Pentanol] | 39.00
C=CCOC(C)=O [Allyl acetate] | 21.00
CCCCC(=O)O [Valeric acid] | 96.00

remark: another data set of the same source

flash point [°C] | Compound
134.0 | CCCCCCCCCCCCCCCC [Hexadecane]
3.0 | CCC(C)CC(C)C (centres undefined) [Hexane, 2,4-dimethyl-]
2.0 | CC(C)CCC(C)C [Hexane, 2,5-dimethyl-]
7.5 | CCC(C)C(C)CC (centres undefined) [Hexane, 3,4-dimethyl-]
164 | CCCCCCCCCCCC(=O)O [Lauric acid]
99.0 | CCCCCCCCCOC(C)=O [NONYL ACETATE]
168 | CCCCCCCCCCCCCCCCCCC [Nonadecane]
41 | CCCCCCCC(C)C [Nonane, 2-methyl-]
37.8 | CC(C)CCCCC(C)C [Octane, 2,7-dimethyl-]
26.0 | CCCCCCC(C)C [Octane, 2-methyl-]
25.5 | CCCCCC(C)CC (centres undefined) [Octane, 3-methyl-]
215 | O=C(O)CCCCCC(=O)O [PIMELIC acid]
11.0 | CCCCCCl [Pentane, 1-chloro-]
21.5 | CCC(C)(C)C(C)(C)C [Pentane, 2,2,3,3-tetramethyl-]
21 | CCC(CC)(CC)CC [Pentane, 3,3-diethyl-]
150.0 | O=C(O)CCCCCC(=O)O [Pimelic acid]
-29.9 | CCC=O [Propionaldehyde]
33 | Cc1cccc(C)n1 [Pyridine, 2,6-dimethyl-]
36.0 | Cc1cccnc1 [Pyridine, 3-methyl-]
96.0 | CCCCCCCCCCC=O [Undecanal]
23.0 | CCC(C)O (centres undefined) [sec-Butanol]

Compound | flash point [°C]
CCCCCCC(C)O (centres undefined) [2-Octanol] | 71.0
CCCC(C)O (centres undefined) [2-Pentanol] | 34.0
C=CCOC(C)=O [Allyl acetate] | 10
C=CC(=O)OCC(C)C [Isobutyl acrylate] | 31.2
COC(C)=O [METHYL ACETATE] | -10.0
Cc1cc(C)cc(C)c1 [Mesitylene] | 44.5
Cc1cccc(O)c1 [Phenol, 3-methyl-] | 86.0
CC(=O)C(C)(C)C [Pinacolone] | 9.0
CCC#N [Propanenitrile] | 6.0
CCCCC(=O)O [Valeric acid] | 86.0
C=COCCCC [n-Butylvinylether] | -1
CCCCCC [n-HEXANE] | -21.6
c1ccc(-c2ccc(-c3ccccc3)cc2)cc1 [p-Terphenyl] | 207

remark: another data set of the same source

flash point [°C] | Compound
15.00 | C[Si](C)(Cl)O[Si](C)(C)Cl [1,3-Dichlorotetramethyldisiloxane]
34.00 | C=C[Si](C)(C)N[Si](C)(C)C=C [1,3-Divinyltetramethyldisilazane]
60.00 | CCCCC=C[Si](Cl)(Cl)Cl [1-Hexenyltrichlorosilane]
-3.00 | CC#C[Si](C)(C)C [1-Trimethylsilylpropyne]
146.00 | CO[Si](CCC1CCC2OC2C1)(OC)OC (centres undefined) [2-(3,4-epoxycyclohexyl)ethyltrimethoxysilane]
90.00 | CC(CCl)C[Si](C)(Cl)Cl (centres undefined) [3-Chloro-2-methylpropylmethyldichlorosilane]
45.00 | CO[Si](C)(CCCCl)OC [3-Chloropropylmethyldimethoxysilane]
84.00 | ClCCC[Si](Cl)(Cl)Cl [3-Chloropropyltrichlorosilane]
110.00 | CO[Si](CCCOCC1CO1)(OC)OC (centres undefined) [3-Glycidoxypropyltrimethoxysilane]
92.00 | C=C(C)C(=O)OCCC[Si](OC)(OC)OC [3-Methacryloxypropyltrimethoxysilane]
20.00 | COCC(C)O[Si](C)(C)C (centres undefined) [(1-Methoxy-2-propoxy)trimethylsilane]
18.00 | C=CC=CC[Si](C)(C)C [(2,4-Pentadienyl)trimethylsilane]
38.00 | C[Si](C)(C)OC1=CCCC1 [(Cyclopentenyloxy)trimethylsilane]
10.00 | CCN(CC)[Si](C)(C)C [(Diethylamino)trimethylsilane]
28.00 | CC(C)N(C(C)C)[Si](C)(C)C [(Diisopropylamino)trimethylsilane]
-13.00 | CN(C)[SiH](C)C [(N,N-Dimethylamino)dimethylsilane]
26.00 | CC[Si](CC)(CC)N(C)C [(N,N-Dimethylamino)triethylsilane]
5.00 | C=CC[Si](C)(C)Cl [Allyl Dimethylchlorosilane]
31.00 | C=CC[Si](Cl)(Cl)Cl [Allyltrichlorosilane]
46.00 | C=CC[Si](OC)(OC)OC [Allyltrimethoxysilane]
7.00 | C=CC[Si](C)(C)C [Allyltrimethylsilane]

flash point [°C] | Compound
12.00 | C[Si](C)(C)C[Si](C)(C)C [Bis(trimethylsilyl)methane]
16.00 | C[Si](C)(C)CBr [Bromomethyltrimethylsilane]
22.00 | C[Si](C)(Cl)CCl [Chloromethyldimethylchlorosilane]
26.00 | CCO[Si](C)(C)CCl [Chloromethyldimethylethoxysilane]
77.00 | Cl[Si](Cl)(Cl)C1CCCC1 [Cyclopentyltrichlorosilane]
62.00 | C[Si](C)(C)O[Si](C)(C)O[Si](C)(C)O[Si](C)(C)C [Decamethyltetrasiloxane]
24.00 | CC[Si](Cl)(Cl)CC [Dichlorodiethylsilane]
-37.00 | Cl[SiH2]Cl [Dichlorosilane]
43.00 | CCO[Si](CC)(CC)OCC [Diethyldiethoxysilane]
15.00 | CC[Si](C)(Cl)CC [Diethylmethylchlorosilane]
98.00 | c1ccc([SiH2]c2ccccc2)cc1 [Diphenylsilane]
93.00 | C[Si]1(C)O[Si](C)(C)O[Si](C)(C)O[Si](C)(C)O[Si](C)(C)O[Si](C)(C)O1 [Dodecamethylcyclohexasiloxane]
-60.00 | CC[SiH3] [Ethylsilane]
27.00 | CC[Si](OC)(OC)OC [Ethyltrimethoxysilane]
96.11 | CCO[SiH2]CCCN [Gamma-aminopropylethoxysilane]
133.00 | C[Si](C)(C)O[Si](C)(C)O[Si](C)(C)O[Si](C)(C)O[Si](C)(C)O[Si](C)(C)O[Si](C)(C)C [Hexadecamethylheptasiloxane]
76.00 | CC[Si](CC)(CC)O[Si](CC)(CC)CC [Hexaethyldisiloxane]
-3.00 | C[Si](C)(C)O[Si](C)(C)C [Hexamethyldisiloxane]
26.00 | C[Si](C)(C)S[Si](C)(C)C [Hexamethyldisilthiane]
64.00 | CCCCCC[SiH](Cl)Cl [Hexyldichlorosilane]
12.00 | CCCCCC[SiH3] [Hexylsilane]

flash point [°C] | Compound
15.00 | C[Si](C)(C)I [Iodotrimethylsilane]
42.00 | CO[Si](CC(C)C)(OC)OC [Isobutyltrimethoxysilane]
-30.00 | CO[Si](C)(C)C [Methoxytrimethylsilane]
3.00 | C[Si](Cl)(Cl)Cl [Methyltrichlorosilane]
27.00 | C[Si](C)(C)N1CCOCC1 [N-(Trimethylsilyl)morpholine]
144.00 | C[Si](C)(C)O[Si](C)(C)O[Si](C)(C)O[Si](C)(C)O[Si](C)(C)O[Si](C)(C)O[Si](C)(C)O[Si](C)(C)C [Octadecamethyloctasiloxane]
66.00 | C[Si]1(C)N[Si](C)(C)N[Si](C)(C)N[Si](C)(C)N1 [Octamethylcyclotetrasilazane]
57.00 | C[Si]1(C)O[Si](C)(C)O[Si](C)(C)O[Si](C)(C)O1 [Octamethylcyclotetrasiloxane]
100.00 | CCCCCCCC[Si](OCC)(OCC)OCC [Octyltriethoxysilane]
85.00 | CO[Si](OC)(OC)c1ccccc1 [Phenyltrimethoxysilane]
50.00 | CCO[Si](OCC)(OCC)OCC [Tetraethoxysilane]
50.00 | O=C=N[Si](N=C=O)(N=C=O)N=C=O [Tetraisocyanatosilane]
67.00 | C[SiH](C)O[Si](O[SiH](C)C)(O[SiH](C)C)O[SiH](C)C [Tetrakisdimethylsiloxysilane]
18.00 | C=C[Si](C=C)(C=C)C=C [Tetravinylsilane]
76.00 | CCC[Si](Cl)(CCC)CCC [Tri-n-propylchlorosilane]
43.00 | CCC[SiH](CCC)CCC [Tri-n-propylsilane]
92.00 | N#CCCC[Si](Cl)(Cl)Cl [Trichloro(3-cyanopropyl) Silane]
123.90 | Clc1ccc([Si](Cl)(Cl)Cl)cc1 [Trichloro(p-chlorophenyl)silane]
30.00 | CC[Si](Cl)(CC)CC [Triethylchlorosilane]
-3.00 | CC[SiH](CC)CC [Triethylsilane]
-10.00 | C=CO[Si](C)(C)C [Trimethyl(vinyloxy)silane]

Compound | flash point [°C]
CC(=O)OC[Si](C)(C)C [Acetoxymethyltrimethylsilane] | 20.00
CC(=O)O[Si](C)(C)OC(C)=O [Dimethyldiacetoxysilane] | 37.00
CC(=O)O[Si](C)(OC(C)=O)OC(C)=O [Methyltriacetoxysilane] | 85.00
